The values below come from paper PMC13421293 (Thrombosis and Haemostasis, 2025).

For data set [1], the system named is canine platelet. Details: method as in PMID 5554584. To be noted: commonly used concentrations; cited from earlier work.
Data set [2] has as its system platelet reactivity. Briefly: Platelet reactivity by multiple electrode aggregometry (Multiplate) in unstable angina patients.
Data set [3] is described as follows: Concentrations of ticagrelor and active metabolite AR-C124910XX by LC-MS in unstable angina patients. The conditions noted are these: for AUC: AUC TPC, total exposure to ticagrelor, area under the ticagrelor plasma concentration curve, 0–360 min; for concentration at 15 min: 15 min post ticagrelor LD 180 mg; for concentration at 30 min: 30 min post ticagrelor LD 180 mg; for concentration at 45 min: 45 min post ticagrelor LD 180 mg; for concentration at 60 min: 60 min post ticagrelor LD 180 mg; for concentration at 120 min: 120 min post ticagrelor LD 180 mg; for concentration at 240 min: 240 min post ticagrelor LD 180 mg; for concentration at 360 min: 360 min post ticagrelor LD 180 mg.

Where [4] appears, read: 15 min post ticagrelor LD 180 mg, MEA.
[5] abbreviates: 30 min post ticagrelor LD 180 mg, MEA.
Where [6] appears, read: 45 min post ticagrelor LD 180 mg, MEA.
[7] abbreviates: 60 min post ticagrelor LD 180 mg, MEA.
The mark [8] stands for this setting: 120 min post ticagrelor LD 180 mg, MEA.
The mark [9] stands for this setting: 180 min post ticagrelor LD 180 mg, MEA.
Where [10] appears, read: 240 min post ticagrelor LD 180 mg, MEA.
[11] abbreviates: time to reach low platelet reactivity after ticagrelor LD, MEA.
The mark [12] stands for this setting: 0–360 min post ticagrelor LD 180 mg.
[13] abbreviates: human, plasma, oral, 180 mg, Ticagrelor plasma concentration, Mean ± SD.
The mark [14] stands for this setting: human, plasma, oral, 180 mg, Ticagrelor plasma concentration, Median (Q1–Q3).

Take `[N-]=[N+]=O` [nitrous oxide]: in data set [1], the “ADP-induced canine platelet aggregation” value is listed as “significant reduction”.
As to `CCCSc1nc(N[C@@H]2C[C@H]2c2ccc(F)c(F)c2)c2nnn([C@@H]3C[C@H](OCCO)[C@@H](O)[C@H]3O)c2n1` [Ticagrelor, ticagrelor], in data set [2] (setting [4]), the “AUC 15 (platelet reactivity), Mean ± SD” value is on record as 66.08 ± 26.54 U and the “AUC 15 (platelet reactivity), Median (Q1–Q3)” value is on record as 66 (48–87) U. Besides, in data set [2] (setting [5]), the “AUC 30 (platelet reactivity), Mean ± SD” value worked out at 47.76 ± 27.79 U and the “AUC 30 (platelet reactivity), Median (Q1–Q3)” value is recorded as 36 (27–66) U. In data set [2] (setting [6]), the “AUC 45 (platelet reactivity), Mean ± SD” value was 34.56 ± 22.95 U and the “AUC 45 (platelet reactivity), Median (Q1–Q3)” value is 28 (17–36) U. Besides, in data set [2] (setting [7]), the “AUC 60 (platelet reactivity), Mean ± SD” value turned out to be 26.64 ± 17.75 U and the “AUC 60 (platelet reactivity), Median (Q1–Q3)” value was 26 (16–32) U. For the same molecule, in data set [2] (setting [8]), the “AUC 120 (platelet reactivity), Mean ± SD” value is 21.6 ± 13.37 U and the “AUC 120 (platelet reactivity), Median (Q1–Q3)” value is reported as 21 (17–25) U. For the same molecule, in data set [2] (setting [9]), the “AUC 180 (platelet reactivity), Mean ± SD” value was determined as 21.32 ± 12.03 U and the “AUC 180 (platelet reactivity), Median (Q1–Q3)” value was 22 (13–28) U. Besides, in data set [2] (setting [10]), the “AUC 240 (platelet reactivity), Mean ± SD” value is on record as 23.76 ± 16.86 U and the “AUC 240 (platelet reactivity), Median (Q1–Q3)” value was 22 (17–26) U. In data set [2] (360 min post ticagrelor LD 180 mg, MEA), the “AUC 360 (platelet reactivity), Median (Q1–Q3)” value is 19 (12–25) U. Also, in data set [2] (baseline, MEA, UA patients), the “AUC 0 (platelet reactivity), Median (Q1–Q3)” value is recorded as 73 (54–95) U and the “AUC 0 (platelet reactivity, area under the aggregation curve), Mean ± SD” value is 76.36 ± 21.82 U. For the same molecule, in data set [2] (setting [11]), the “Time to AUC < 46 U, Mean ± SD” value is given as 43.8 ± 46.42 and the “Time to AUC < 46 U, Median (Q1–Q3)” value is reported as 30 (30–45). In data set [3] (setting [12]), the “Ticagrelor maximum concentration, Mean ± SD” value was 699 ± 257 ng/mL and the “Ticagrelor maximum concentration, Median (Q1–Q3)” value is on record as 680 (514–800) ng/mL. Further, in data set [3] (baseline), the “Ticagrelor plasma concentration, Mean ± SD” value is listed as 0 ng/mL and the “Ticagrelor plasma concentration, Median (Q1–Q3)” value amounted to 0 ng/mL. Also, the AUC in data set [3] (human, plasma, oral, 180 mg, Mean ± SD) was determined as 2310 ng·h/mL. Further, in data set [3] (human, plasma, oral, 180 mg, Median (Q1–Q3)), the AUC came out at 2070 ng·h/mL. In addition, in data set [3] (setting [13]), the concentration at 15 min stood at 20 ± 29 ng/mL, the concentration at 30 min came out at 171 ± 237 ng/mL, the concentration at 45 min is 329 ± 353 ng/mL and the concentration at 60 min is 464 ± 379 ng/mL. Besides, in data set [3] (setting [13]), the concentration at 120 min was 533 ± 243 ng/mL, the concentration at 240 min was found to be 404 ± 136 ng/mL and the concentration at 360 min was 291 ± 94 ng/mL. Further, in data set [3] (setting [14]), the concentration at 15 min was 13 ng/mL, the concentration at 30 min worked out at 69 ng/mL, the concentration at 45 min was determined as 210 ng/mL and the concentration at 60 min came to 316 ng/mL. In data set [3] (setting [14]), the concentration at 120 min was 569 ng/mL, the concentration at 240 min worked out at 402 ng/mL and the concentration at 360 min stood at 290 ng/mL. Moreover, in data set [3] (human, plasma, oral, 180 mg, Ticagrelor plasma concentration, Median (Q1–Q3), 180 min post ticagrelor LD 180 mg), the concentration at 180 min came to 453 ng/mL.
For `COC(F)(F)C(Cl)Cl` [methoxyflurane], in data set [1], the “ADP-induced canine platelet aggregation” value was “significant reduction”. In addition, in data set [2] (methoxyflurane added to ticagrelor LD vs ticagrelor alone, MEA AUC), the “effect on platelet reactivity” value is recorded as “inhibitory effect”.
For `CCOCC` [diethyl ether], the “ADP-induced canine platelet aggregation” value in data set [1] is listed as “significant reduction”.
For `FC(F)(F)C(Cl)Br` (stereo not drawn) [halothane], in data set [1], the “ADP-induced canine platelet aggregation” value is reported as “significant reduction”.
